Source: patent US7465729B2, “Methods of treatment of menopause and perimenopause using eszopiclone” (Sepracor Inc., priority 2004, dated 2008)

Legend:
[1] = test system: women with insomnia secondary to perimenopause or menopause; test: Clinical study: discontinuation rates; type: in vivo; settings: 3 mg nightly for four weeks
Description: (§1) The study was aimed at observing efficacy of eszopiclone 3 mg compared to placebo in the treatment of insomnia secondary to perimenopause or menopause. The study was a multicenter, randomized, double-blind, placebo-controlled, parallel-group study. […] The primary method of analysis compared the post-randomization results between the two treatment groups.
(§2) Subjects were women with insomnia secondary to perimenopause or menopause. Subjects were perimenopausal or menopausal and had insomnia symptoms including ≧45 minutes sleep latency (SL) and total sleep time (TST) ≦6 hours. Perimenopausal/menopausal symptoms predated the onset of sleep disturbance symptoms. The patient population was predominately Caucasian (77.2%). The mean age was 49, with a range of 40-60.
(§3) A total of 410 subjects were randomized. Among them, 201 received 3 mg of eszopiclone (ESZ) nightly (at bedtime) for four weeks and 209 received matching placebo (PBO).

[2] = test system: women with insomnia secondary to perimenopause or menopause; test: Clinical study: Physician Global Assessment of perimenopausal or menopausal symptoms; type: in vivo; settings: ITT; for Physician Global Assessment, Observed Value, Mean (SD): score 1 = Very much improved to 7 = Very much worse; for Physician Global Assessment, Observed Value, Least Squares Means (SE) [1]: ANOVA
Description: as §1, §2, §3
A Physician Global Assessment was administered at Week 4, the end of the double-blind treatment period.

mice = test: Antimuscarinic activity in vivo: oxotremorine induced salivation; settings: doses up to 300 mg/kg, p.o.
Description: Eszopiclone was evaluated for antimuscarinic activity in vivo.

conscious dogs = test: Dose escalation safety study, cardiovascular and respiratory parameters; settings: acute intravenous, 3, 5 and 12 mg/kg
Description: To establish the safety of eszopiclone, a dose escalation study was carried out. Cardiovascular and respiratory parameters were evaluated in conscious dogs following acute intravenous administration of (R)-, (S)- or racemic zopiclone at three doses (3, 5 and 12 mg/kg).

[3] = test system: women with insomnia secondary to perimenopause or menopause; test: Clinical study: number of nocturnal awakenings due to hot flashes; type: in vivo
Description: as §1, §2, §3

With `CN1CCN(C(=O)O[C@H]2c3nccnc3C(=O)N2c2ccc(Cl)cn2)CC1` [Eszopiclone, (+)6-(5-chloropyrid-2-yl)-5-(4-methylpiperazin-1-yl)carbonyloxy-7-oxo-6,7-dihydro-5H-pyrrolo[3-4-b]pyrazine] the discontinuation rate [1] was 11.9%, the “Physician Global Assessment, Observed Value, 25th Percentile” value ([2]; Visit 3 (Baseline), 3 mg group) was 4.0 and the “Physician Global Assessment, Observed Value, 75th Percentile” value ([2]; Visit 3 (Baseline), 3 mg group) was 4.0. The “Physician Global Assessment, Observed Value, Maximum” value ([2]; Visit 3 (Baseline), 3 mg group) was 7.0, the “Physician Global Assessment, Observed Value, Median” value ([2]; Visit 3 (Baseline), 3 mg group) was 4.0 and the “Physician Global Assessment, Observed Value, Minimum” value ([2]; Visit 3 (Baseline), 3 mg group) was 0.0. For the same molecule, the “Physician Global Assessment, Observed Value, Mean (SD)” value ([2]; Visit 3 (Baseline), 3 mg group, 0 = Not assessed) was 3.7 (1.0), the “Physician Global Assessment, Change from Baseline, 25th Percentile” value ([2]; Visit 5 (Week 4), 3 mg nightly) was −2.0 and the “Physician Global Assessment, Change from Baseline, 75th Percentile” value ([2]; Visit 5 (Week 4), 3 mg nightly) was 0.0. The “Physician Global Assessment, Change from Baseline, Maximum” value ([2]; Visit 5 (Week 4), 3 mg nightly) was 6.0, the “Physician Global Assessment, Change from Baseline, Mean (SD)” value ([2]; Visit 5 (Week 4), 3 mg nightly) was −1.0 (1.4) and the “Physician Global Assessment, Change from Baseline, Median” value ([2]; Visit 5 (Week 4), 3 mg nightly) was −1.0. For the same molecule, the “Physician Global Assessment, Change from Baseline, Minimum” value ([2]; Visit 5 (Week 4), 3 mg nightly) was −4.0, the “Physician Global Assessment, Observed Value, 25th Percentile” value ([2]; Visit 5 (Week 4), 3 mg nightly) was 2.0 and the “Physician Global Assessment, Observed Value, 75th Percentile” value ([2]; Visit 5 (Week 4), 3 mg nightly) was 4.0. The “Physician Global Assessment, Observed Value, Maximum” value ([2]; Visit 5 (Week 4), 3 mg nightly) was 6.0, the “Physician Global Assessment, Observed Value, Median” value ([2]; Visit 5 (Week 4), 3 mg nightly) was 2.0 and the “Physician Global Assessment, Observed Value, Minimum” value ([2]; Visit 5 (Week 4), 3 mg nightly) was 1.0. The “Physician Global Assessment, Change from Baseline, Least Squares Means (SE) [2]” value ([2]; Visit 5 (Week 4), 3 mg nightly, ANCOVA) was −0.9 (0.1), the “Physician Global Assessment, Observed Value, Least Squares Means (SE) [1]” value ([2]; Visit 5 (Week 4), 3 mg nightly) was 2.7 (0.1) and the “Physician Global Assessment, Observed Value, Least Squares Means (SE) [1]” value ([2]; Visit 5 (Week 4), 3 mg nightly, listed as ESZ) was 2.7. The “Physician Global Assessment, Observed Value, Mean (SD)” value ([2]; Visit 5 (Week 4), 3 mg nightly) was 2.6 (1.2), the “antagonism of oxotremorine induced salivation” value (mice) was “neither (R)-, (S)-, nor racemic zopiclone significantly antagonized oxotremorine induced salivation” and the “cardiotoxicity, as evidenced by the electrocardiogram (ECG)” value (conscious dogs) was “No evidence of cardiotoxicity”. For the same molecule, the “effect on blood pressure” value (conscious dogs) was “dose dependent, transient decreases in blood pressure”, the “effect on heart rate” value (conscious dogs) was “compensatory increase in heart rate” and the “Blood gases and blood chemistries (pH, pCO2, pO2, hematocrit, and lactate)” value (conscious dogs; all dose groups) was “remained unaffected”. For the same molecule, the “Number of Nocturnal Awakenings due to Hot Flashes, Observed Value, Mean (SD)” value ([3]; Baseline (average of all pre-DB observations), 3 mg group, ITT) was 1.3 (1.2), the “Number of Nocturnal Awakenings due to Hot Flashes, Observed Value, 25th Percentile” value ([3]; Baseline, 3 mg group, ITT) was 0.3 and the “Number of Nocturnal Awakenings due to Hot Flashes, Observed Value, 75th Percentile” value ([3]; Baseline, 3 mg group, ITT) was 2.0. For the same molecule, the “Number of Nocturnal Awakenings due to Hot Flashes, Observed Value, Maximum” value ([3]; Baseline, 3 mg group, ITT) was 6.0, the “Number of Nocturnal Awakenings due to Hot Flashes, Observed Value, Median” value ([3]; Baseline, 3 mg group, ITT) was 1.0 and the “Number of Nocturnal Awakenings due to Hot Flashes, Observed Value, Minimum” value ([3]; Baseline, 3 mg group, ITT) was 0.0. The “Number of Nocturnal Awakenings due to Hot Flashes, Change from Baseline, 25th Percentile” value ([3]; DB Average, 3 mg nightly, ITT) was −1.1, the “Number of Nocturnal Awakenings due to Hot Flashes, Change from Baseline, 75th Percentile” value ([3]; DB Average, 3 mg nightly, ITT) was 0.0 and the “Number of Nocturnal Awakenings due to Hot Flashes, Change from Baseline, Maximum” value ([3]; DB Average, 3 mg nightly, ITT) was 1.5. For the same molecule, the “Number of Nocturnal Awakenings due to Hot Flashes, Change from Baseline, Mean (SD)” value ([3]; DB Average, 3 mg nightly, ITT) was −0.7 (1.0), the “Number of Nocturnal Awakenings due to Hot Flashes, Change from Baseline, Median” value ([3]; DB Average, 3 mg nightly, ITT) was −0.5 and the “Number of Nocturnal Awakenings due to Hot Flashes, Change from Baseline, Minimum” value ([3]; DB Average, 3 mg nightly, ITT) was −6.0. The “Number of Nocturnal Awakenings due to Hot Flashes, Observed Value, 25th Percentile” value ([3]; DB Average, 3 mg nightly, ITT) was 0.0, the “Number of Nocturnal Awakenings due to Hot Flashes, Observed Value, 75th Percentile” value ([3]; DB Average, 3 mg nightly, ITT) was 0.9 and the “Number of Nocturnal Awakenings due to Hot Flashes, Observed Value, Maximum” value ([3]; DB Average, 3 mg nightly, ITT) was 2.7. For the same molecule, the “Number of Nocturnal Awakenings due to Hot Flashes, Observed Value, Mean (SD)” value ([3]; DB Average, 3 mg nightly, ITT) was 0.5 (0.6), the “Number of Nocturnal Awakenings due to Hot Flashes, Observed Value, Median” value ([3]; DB Average, 3 mg nightly, ITT) was 0.2 and the “Number of Nocturnal Awakenings due to Hot Flashes, Observed Value, Minimum” value ([3]; DB Average, 3 mg nightly, ITT) was 0.0. For the same molecule, the “Number of Nocturnal Awakenings due to Hot Flashes, Change from Baseline, Least Squares Means (SE) [3]” value ([3]; DB Average, 3 mg nightly, ITT, ANCOVA) was −0.7 (0.1), the “Number of Nocturnal Awakenings due to Hot Flashes, Observed Value, Least Squares Means (SE) [2]” value ([3]; DB Average, 3 mg nightly, ITT, ANOVA) was 0.5 (0.1) and the “nocturnal awakenings due to hot flashes, LS means” value ([3]; Week 1, 3 mg nightly) was 0.3 per night. The “Number of Nocturnal Awakenings due to Hot Flashes, Change from Baseline, 25th Percentile” value ([3]; Week 1, 3 mg nightly, ITT) was −1.2, the “Number of Nocturnal Awakenings due to Hot Flashes, Change from Baseline, 75th Percentile” value ([3]; Week 1, 3 mg nightly, ITT) was 0.0 and the “Number of Nocturnal Awakenings due to Hot Flashes, Change from Baseline, Maximum” value ([3]; Week 1, 3 mg nightly, ITT) was 0.8. For the same molecule, the “Number of Nocturnal Awakenings due to Hot Flashes, Change from Baseline, Mean (SD)” value ([3]; Week 1, 3 mg nightly, ITT) was −0.7 (1.0).
